Assay [1] concerns S. aureus ATCC 33592 (Sa92). Briefly: MIC, microdilution (CLSI). In kind it is cell-based. Conditions: Staphylococcus aureus, ATCC33592; Sa92, methicillin-resistant S. aureus ATCC 33592; n = 3; read-out: MIC. The method, then: (§1) Compounds were dissolved in dimethyl sulfoxide (DMSO) to achieve a starting concentration of 32 µg/mL as described by us previously. Compounds were further diluted two-fold across the 96-well honeycomb plate columns in cation adjusted Mueller Hinton broth (CAMHB), and bacterial culture was added. Plates were incubated for 18–20 h at 35 ℃ before determining the minimum concentrations at which wells had no visible turbidity to the naked eye. The MIC values were determined from at least a duplicate result obtained from three independent experiments using fresh bacterial cultures on different days.

Assay [2] deals with S. aureus ATCC 700699 (Sa99). Put plainly: MIC, microdilution (CLSI). In kind it is cell-based. Conditions: Staphylococcus aureus, ATCC700699; Sa99, methicillin-resistant S. aureus ATCC 700699; n = 3; read-out: MIC. The method, then: as §1
Assay [3] has as its system S. aureus ATCC 33591 (Sa91). Briefly: MIC, microdilution (CLSI). In kind it is cell-based. Conditions: Staphylococcus aureus, ATCC33591; Sa91, methicillin-resistant S. aureus ATCC 33591; n = 3; read-out: MIC. The method, then:
as §1
On the technique in general: In broth dilution the organism is exposed to a series of concentrations in liquid medium.

In assay [4] the test system is Bacillus subtilis ATCC 6623 (Bs). Briefly: MIC, microdilution (CLSI). In kind it is cell-based. Conditions: ATCC6623; Bs, Bacillus subtilis ATCC 6623; n = 3; read-out: MIC. The method, then: as §1
The test system of assay [5] is E. faecalis ATCC 29212 (Ef12). Put plainly: MIC, microdilution (CLSI). The format is cell-based. Conditions: Enterococcus faecalis, ATCC29212; Ef12, antibiotic susceptible E. faecalis ATCC 29212; n = 3; read-out: MIC. The method, then: as §1
The test system of assay [6] is S. epidermidis ATCC 700296 (Se). Briefly: MIC, microdilution (CLSI). The format is cell-based. Conditions: Staphylococcus epidermidis, ATCC700296; Se, S. epidermidis ATCC 700296; n = 3; read-out: MIC. The method, then: as §1
Assay [7] relates to S. aureus BAA-2312 (Sa12). Put plainly: MIC, microdilution (CLSI). The format is cell-based. Conditions: Staphylococcus aureus, BAA2312; Sa12, methicillin-resistant S. aureus BAA-2312; n = 3; read-out: MIC. The method, then: as §1
For assay [8], the system named is E. faecalis ATCC 51299 (Ef99). Put plainly: MIC, microdilution (CLSI). Conditions: Enterococcus faecalis, ATCC 51299 / VRE; Ef99, vancomycin-resistant (VRE) E. faecalis ATCC 51299; n = 3; read-out: MIC. The format is cell-based. The method, then:
as §1

Assay [9] relates to E. faecium ATCC 700221 (Ef21). Put plainly: MIC, microdilution (CLSI). The format is cell-based. Conditions: Enterococcus faecium, ATCC 700221 / VRE; Ef21, vancomycin-resistant (VRE) E. faecium ATCC 700221; n = 3; read-out: MIC. The method, then:
as §1

For assay [10], the system named is S. aureus ATCC 25923 (Sa23). Briefly: MIC, microdilution (CLSI). Conditions: Staphylococcus aureus, ATCC25923; Sa23, antibiotic susceptible S. aureus ATCC 25923; n = 3; read-out: MIC. The format is cell-based. The method, then:
as §1

The test system of another assay is Gram-positive bacteria. Put plainly: MIC across the tested strains. Conditions: across the tested strains. The format is cell-based. The method, then: as §1
In a further assay the test system is S. aureus strains. Put plainly: MIC against S. aureus strains. The format is cell-based, Staphylococcus aureus. Conditions: against S. aureus strains. The method, then:
as §1

Values after ≈ are worked out from the molar mass of the structure shown.

Usually MIC stands for the lowest concentration that inhibits growth of the organism. For the compound `O=C(O)c1ccc(-n2cc(CNc3cc(Cl)cc(Cl)c3)c(-c3cc(C(F)(F)F)cc(C(F)(F)F)c3)n2)cc1` [Compound 20, 4-[3-[3,5-Bis(trifluoromethyl)phenyl]-4-[(3,5-dichloroanilino)methyl]pyrazol-1-yl] benzoic acid], the MIC in assay [1] is 1 mg/L (≈ 1.74 µM); in assay [2] it was 1 mg/L (≈ 1.74 µM); in assay [3], 0.5 mg/L (≈ 0.871 µM); in [4] it was 1 mg/L (≈ 1.74 µM); in assay [5], 1 mg/L (≈ 1.74 µM); in assay [6] it was 2 mg/L (≈ 3.48 µM). Further, the minimal inhibitory concentration (MIC) in assay [7] is 1 mg/L (≈ 1.74 µM); in assay [8] it was 1 mg/L (≈ 1.74 µM); in assay [9], 1 mg/L (≈ 1.74 µM); in assay [10] it was 1 mg/L (≈ 1.74 µM); with Gram-positive bacteria it was at least 0.5 mg/L. Moreover, in the assay on S. aureus strains, the “times more effective than vancomycin and daptomycin” value is reported as “up to 4 times”.
With `O=C(O)c1ccc(-n2cc(CNc3ccc(Cl)c(Cl)c3)c(-c3cc(C(F)(F)F)cc(C(F)(F)F)c3)n2)cc1` [Compound 19, 4-[3-[3,5-Bis(trifluoromethyl)phenyl]-4-[(3,4-dichloroanilino)methyl]pyrazol-1-yl] benzoic acid], the MIC was 1 mg/L (≈ 1.74 µM) in assay [1]; 2 mg/L (≈ 3.48 µM) in assay [2]; 0.5 mg/L (≈ 0.871 µM) in assay [3]; 1 mg/L (≈ 1.74 µM) in assay [4]; 1 mg/L (≈ 1.74 µM) in assay [5]; 1 mg/L (≈ 1.74 µM) in assay [6]. Further, the MIC is 0.5 mg/L (≈ 0.871 µM) in assay [7]; 1 mg/L (≈ 1.74 µM) in [8]; 1 mg/L (≈ 1.74 µM) in assay [9]; 1 mg/L (≈ 1.74 µM) in assay [10]; at least 0.5 mg/L in the assay on Gram-positive bacteria. Also, in the assay on S. aureus strains, the “times more effective than vancomycin and daptomycin” value is “up to 4 times”.
On to `O=C(O)c1ccc(-n2cc(CNc3cc(Cl)c(F)cc3F)c(-c3cc(C(F)(F)F)cc(C(F)(F)F)c3)n2)cc1` [Compound 26, 4-[3-[3,5-Bis(trifluoromethyl)phenyl]-4-[(5-chloro-2,4-difluoro-anilino)methyl]pyraz-ol-1-yl] benzoic acid], for which the minimal inhibitory concentration (MIC) in assay [1] stood at 1 mg/L (≈ 1.74 µM); in [2] it was 1 mg/L (≈ 1.74 µM); in assay [3], 2 mg/L (≈ 3.47 µM); in assay [4] it was 0.25 mg/L (≈ 0.434 µM); in assay [5], 1 mg/L (≈ 1.74 µM); in assay [6], 4 mg/L (≈ 6.95 µM). The minimal inhibitory concentration (MIC) in assay [7] was 0.25 mg/L (≈ 0.434 µM); in assay [8], 2 mg/L (≈ 3.47 µM); in assay [9], 0.25 mg/L (≈ 0.434 µM); in assay [10], 2 mg/L (≈ 3.47 µM); with Gram-positive bacteria it was at least 0.25 mg/L. Further, the “times more effective than vancomycin and daptomycin” value with S. aureus strains is on record as “up to 4 times”.

(Values after PMC8398255, “Synthesis of 3,5-Bis(trifluoromethyl)phenyl-Substituted Pyrazole Derivatives as Potent Growth Inhibitors of Drug-Resistant Bacteria” (Molecules, 2021).)
